Assay results reported in BindingDB's records for patent US20240287022 (Merck Sharp & Dohme, 2024).

The compounds below were run against T1, L-amino-acid oxidase (Homo sapiens, UniProt Q96RQ9) (assay: IL4I1 Enzymatic Assay).
T1 sequence (Q96RQ9 whole entry): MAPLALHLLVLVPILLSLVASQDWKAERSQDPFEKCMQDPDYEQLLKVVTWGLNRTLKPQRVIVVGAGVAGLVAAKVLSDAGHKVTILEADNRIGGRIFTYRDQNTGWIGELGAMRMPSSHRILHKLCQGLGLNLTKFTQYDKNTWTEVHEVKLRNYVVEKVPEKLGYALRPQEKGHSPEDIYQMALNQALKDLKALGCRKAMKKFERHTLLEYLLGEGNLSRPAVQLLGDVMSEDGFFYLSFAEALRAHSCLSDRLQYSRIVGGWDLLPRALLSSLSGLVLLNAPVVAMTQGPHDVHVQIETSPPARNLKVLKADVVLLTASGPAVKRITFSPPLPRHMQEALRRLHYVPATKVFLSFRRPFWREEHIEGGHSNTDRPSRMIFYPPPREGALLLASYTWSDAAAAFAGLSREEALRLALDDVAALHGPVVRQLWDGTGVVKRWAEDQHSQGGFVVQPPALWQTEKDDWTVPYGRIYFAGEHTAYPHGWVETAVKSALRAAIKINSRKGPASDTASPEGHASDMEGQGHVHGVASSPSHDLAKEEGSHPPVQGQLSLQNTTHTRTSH
Protocol: nterleukin 4 inducible protein 1 (IL4I1) is an L-amino oxidase that catalyzes the oxidation of aromatic residues (Phe, Trp and Tyr): L-amino acid+H2O+O2→2-oxo acid+NH3+H2O2. Equal molar of H2O2 and the corresponding alpha-ketoacid are produced when IL4I1 and substrate are added. In this assay, the hydrogen peroxide generated by IL4I1 are then detected through a coupled reaction with Amplex Red (10-acetyl-3,7-dihydroxyphenoxazine) and […] (HRP) to produce Resorufin product that could be detected in the form of fluorescence signals. The assessment of the inhibitory effect of small molecules (EC50) on IL4I1 is measured by the effectiveness of the compounds to inhibit the production of H2O2.Using this assay, the potency (EC50) of each compound was determined from a ten-point (1:3 serial dilution; top compound concentration of 10000 nM) titration curve using the following outlined procedure. To each well of a black flat-bottom Greiner (Cat #781076) 384 well-plate, 25 nL of compound (0.1% DMSO in final assay volume of 25 μL) was dispensed, followed by the addition of 12.5 μL of 1× assay buffer (50 mM Hepes 7.0 and 0.005% Tween20 (Sigma, Cat #P8341; low peroxide grade)) containing 2 nM of recombinant IL4I1 (R&D Systems, Cat #5684-AO-020). Plates were placed in an ambient temperature humidified chamber for a four-hour pre-incubation with compound. Subsequently, each reaction was initiated by the addition of 12.5 μL 1× assay buffer containing 2 mM of each aromatic amino acids (Phe/Tyr/Trp), 0.1 mM Amplex Red and 2 U/mL of HRP. The final reaction in each well of 25 μL consists of 1 nM of IL4I1, 1 mM of each residues (Phe, Tyr and Trp), 0.05 mM Amplex Red and 1 U/mL of HRP. It should be noted that the concentrations of Amplex Red and HRP used here are in excess such that the conversion of H2O2 to Resorufin product occurs instantaneously and non-rate limiting.

SMILES | EC50
O=c1[nH]c2ccncc2cc1Cc1ccc2scnc2c1 [US20240287022, Example 114] | 1.5 nM
Cn1c(=O)c(Cc2ccc(Cc3nnco3)cc2)cc2ccccc21 [US20240287022, Example 145] | 154 nM
N#CCc1ccc(Cc2cc3ccccc3[nH]c2=O)cn1 [US20240287022, Example 93] | 14.4 nM
O=c1[nH]c2ccccc2cc1Cc1ccc(C2(F)CNC2)cc1 [US20240287022, Example 76] | 8.2 nM
